The target of one assay is μ-receptor (Homo sapiens (Human), UniProt P35372). The experiment in a line: Receptor binding, competitive displacement of [3H]DAMGO. Particulars: 0.25 nM [3H]DAMGO, CHO cell membrane protein, 60 min at 25° C. The procedure: The Ki (binding affinity) for μ-receptor was determined with a previously described method using a competitive displacement assay (Neumeyer et al., J. Med. Chem., v. 46, p. 5162-5170, 2003). Membrane protein from CHO (Chinese Hamster Ovarian) cells that stably expressed one type of the cloned human opioid receptor were incubated with 12 different concentrations of the compound in the presence of 0.25 nM [3H]DAMGO, 0.2 nM [3H]naltrindole or 1 nM [3H]U69,593 in a final volume of 1 mL of 50 mM Tris-HCl, pH 7.5 at 25° C. Incubation times of 60 min were used for [3H]DAMGO and [3H]U69,593. Because of a slower association of [3H]naltrindole with the receptor, a 3 h incubation was used with this radioligand. Samples incubated with [3H]naltrindole also contained 10 mM MgCl2 and 0.5 mM phenylmethylsulfonyl fluoride. Nonspecific binding was measured by inclusion of 10 μM naloxone. The binding was terminated by filtering the samples through Schleicher & Schuell No. 32 glass fiber filters using a Brandel 48-well cell harvester. The filters were subsequently washed three times with 3 mL of cold 50 mM Tris-HCl, pH 7.5, and were counted in 2 mL Ecoscint A scintillation fluid. For [3H]naltrindole and [3H]U69,593 binding, the filters were soaked in 0.1% polyethylenimine for at least 60 min before use. IC50 values will be calculated by least squares fit to a logarithm-probit analysis. Ki values of unlabelled compounds were calculated from the equation Ki=(IC50)/1+S where S=(concentration of radioligand)/(Kd of radioligand) (Cheng and Prusoff, Biochemical Pharmacology, v. 22, p. 3099-3108, 1973).

The target of a further assay is human μ opioid receptor (Homo sapiens (Human), UniProt P35372). The experiment in a line: Functional activity ([35S]GTPγS binding). The class given is biochemical. Particulars: [35S]GTPγS 0.080 nM, CHO cell membranes, 60 min at 30° C., filtration. Here is the method:
The [^35S]GTPγS assay measures the functional properties of a compound by quantifying the level of G-protein activation following agonist binding in studies using stably transfected cells, and is considered to be a measure of the efficacy of a compound. Membranes from CHO (Chinese Hamster Ovary) cells that stably expressed one type of the cloned human opioid receptor human were used in the experiments. In a final volume of 0.5 mL, 12 different concentrations of each test compound were incubated with 7.5 μg of CHO cell membranes that stably expressed the human p opioid receptor. The assay buffer consisted of 50 mM Tris-HCl, pH 7.4, 3 mM MgCl2, 0.2 mM EGTA, 3 μM GDP, and 100 mM NaCl. The final concentration of [35S]GTPγS was 0.080 nM. Nonspecific binding was measured by inclusion of 10 μM GTPγS. Binding was initiated by the addition of the membranes. After an incubation of 60 min at 30° C., the samples were filtered through Schleicher & Schuell No. 32 glass fiber filters. The filters were washed three times with cold 50 mM Tris-HCl, pH 7.5, and were counted in 2 mL of Ecoscint scintillation fluid.

Structures are written as SMILES. Structures can show the parent of a compound that is named as a salt.

In turn, `COC1(c2cccc(C(N)=O)c2)C2CCCC1CN(C[C@H]1CCOC1)C2` (single isomer, unassigned) [Compound 148, hydrochloride] yielded a Ki at μ-receptor of under 1 nM. The EC50 on human μ opioid receptor is under 10 nM.
Compound `COC1(c2ccnc(C(N)=O)c2)C2CCCC1CN([C@H]1CC[C@@H]1C)C2` (stereo in doubt) [Compound 147, 4-((1R,5S,9R)-9-methoxy-3-((1R,2R)-2-methylcyclobutyl)-3-azabicyclo[3.3.1]nonan-9-yl)picolinamide hydrochloride] displayed a Ki at μ-receptor of 1 to 5 nM. The compound further displayed an EC50 at human μ opioid receptor of 10 to 75 nM.
Regarding `COC1(c2cccc(C(N)=O)c2)C2CCCC1CN(CC1CCS(=O)(=O)CC1)C2` [Compound 1, 3-((1R,5S,9r)-3-((1,1-dioxidotetrahydro-2H-thiopyran-4-yl)methyl)-9-methoxy-3-azabicyclo[3.3.1]nonan-9-yl)benzamide hydrochloride], on μ-receptor, the Ki was 1 to 5 nM. The concentration for a half-maximal effect (EC50) at human μ opioid receptor was over 75 nM.
`COC1(c2ccnc(C(N)=O)c2)C2CCCC1CN([C@H]1C[C@@H](F)C1)C2` (stereo partly drawn) [Compound 2, 4-((1R,5S,9R)-3-((1s,3S)-3-fluorocyclobutyl)-9-methoxy-3-azabicyclo[3.3.1]nonan-9-yl)picolinamide hydrochloride] showed a Ki at μ-receptor of under 1 nM. The compound further came in with an EC50 at human μ opioid receptor of 10 to 75 nM.
For `COC1(c2cccc(C(N)=O)c2)C2CCCC1CN(C1CCC3(CC1)COC3)C2` [Compound 3, 3-((1R,5S,9r)-9-methoxy-3-(2-oxaspiro[3.5]nonan-7-yl)-3-azabicyclo[3.3.1]nonan-9-yl)benzamide (S)-2-hydroxysuccinate] the same measures were under 1 nM and under 10 nM.
For `COC1(c2ccnc(C(N)=O)c2)C2CCCC1CN(C1(C)CC1)C2` [Compound 4, 4-((1R,5S,9r)-9-methoxy-3-(1-methylcyclopropyl)-3-azabicyclo[3.3.1]nonan-9-yl)picolinamide hydrochloride] the same measures were over 5 nM and over 75 nM.
Consider `COC1(c2cccc(C(N)=O)c2)C2CCCC1CN(C1CC3(CCOCC3)C1)C2` [Compound 6, 3-((1R,5S,9r)-9-methoxy-3-(7-oxaspiro[3.5]nonan-2-yl)-3-azabicyclo[3.3.1]nonan-9-yl)benzamide hydrochloride], for which, on μ-receptor, the Ki was under 1 nM. At human μ opioid receptor, the EC50 is under 10 nM.
For `COC1(c2ccnc(C(N)=O)c2)C2CCCC1CN(C1CCC(F)(F)CC1)C2` [Compound 7, 4-((1R,5S,9r)-3-(4,4-difluorocyclohexyl)-9-methoxy-3-azabicyclo[3.3.1]nonan-9-yl)picolinamide hydrochloride], the Ki on μ-receptor was 1 to 5 nM. This compound also showed an EC50 at human μ opioid receptor of over 75 nM.
For `COC1(c2cccc(C(N)=O)c2)C2CCCC1CN(C1CCC(F)(F)CC1)C2` [Compound 9, 3-((1R,5S,9r)-3-(4,4-difluorocyclohexyl)-9-methoxy-3-azabicyclo[3.3.1]nonan-9-yl)benzamide hydrochloride] the same measures were under 1 nM and 10 to 75 nM.
The corresponding values for `COC1(c2ccnc(C(N)=O)c2)C2CCCC1CN(C1CC3CCC(C1)O3)C2` [Compound 10, 4-((1R,5S,9R)-3-((1R,3r,5S)-8-oxabicyclo[3.2.1]octan-3-yl)-9-methoxy-3-azabicyclo[3.3.1]nonan-9-yl)picolinamide hydrochloride] are over 5 nM and over 75 nM.
On μ-receptor, `COC1(c2cccc(C(N)=O)c2)C2CCCC1CN([C@H]1C[C@H]3C[C@H]3C1)C2` (stereo partly drawn) [Compound 11, 3-((1R,5S,9r)-3-(bicyclo[3.1.0]hexan-3-yl)-9-methoxy-3-azabicyclo[3.3.1]nonan-9-yl)benzamide hydrochloride] displayed an inhibition constant Ki of under 1 nM. In addition, the EC50 at human μ opioid receptor is under 10 nM.
The corresponding values for `COC1(c2ccnc(C(N)=O)c2)C2CCCC1CN(C1CC3(CCOCC3)C1)C2` [Compound 13, 4-((1R,5S,9r)-9-methoxy-3-(7-oxaspiro[3.5]nonan-2-yl)-3-azabicyclo[3.3.1]nonan-9-yl)picolinamide hydrochloride] are under 1 nM and under 10 nM.
At μ-receptor, `COC1(c2cccc(C(N)=O)c2)C2CCCC1CN([C@H]1C[C@@H]3[C@H](C1)C3(F)F)C2` (stereo partly drawn) [Compound 17, 3-((1R,5S,9R)-3-((1R,3r,5S)-6,6-difluorobicyclo[3.1.0]hexan-3-yl)-9-methoxy-3-azabicyclo[3.3.1]nonan-9-yl)benzamide hydrochloride] came in with a Ki of under 1 nM. Besides, the EC50 at human μ opioid receptor is under 10 nM.
For `COC1(c2ccnc(C(N)=O)c2)C2CCCC1CN([C@H]1C[C@@H]3[C@H](C1)C3(F)F)C2` (stereo partly drawn) [Compound 18, 4-((1R,5S,9R)-3-((1R,3r,5S)-6,6-difluorobicyclo[3.1.0]hexan-3-yl)-9-methoxy-3-azabicyclo[3.3.1]nonan-9-yl)picolinamide hydrochloride] the same measures were under 1 nM and under 10 nM.
For `COC1(c2cccc(C(N)=O)c2)C2CCCC1CN(Cc1ccccc1)C2` [Compound 21, 3-((1R,5S,9r)-3-benzyl-9-methoxy-3-azabicyclo[3.3.1]nonan-9-yl)benzamide hydrochloride] the same measures were under 1 nM and under 10 nM.
At μ-receptor, `COC1(c2cccc(C(N)=O)c2)C2CCCC1CN(CCc1ccccc1)C2` [Compound 24, 3-((1R,5S,9r)-9-methoxy-3-phenethyl-3-azabicyclo[3.3.1]nonan-9-yl)benzamide hydrochloride] returned an inhibition constant Ki of under 1 nM. On human μ opioid receptor, this compound showed an EC50 of under 10 nM.
On to `COC1(c2cccc(C(N)=O)c2)C2CCCC1CN(CC1CCC1)C2` [Compound 26, 3-((1R,5S,9r)-3-(cyclobutylmethyl)-9-methoxy-3-azabicyclo[3.3.1]nonan-9-yl)benzamide hydrochloride], for which the Ki at μ-receptor is under 1 nM. At human μ opioid receptor, the EC50 was under 10 nM.
In turn, `CCCCN1CC2CCCC(C1)C2(OC)c1cccc(C(N)=O)c1` [Compound 29, 3-((1R,5S,9r)-3-butyl-9-methoxy-3-azabicyclo[3.3.1]nonan-9-yl)benzamide hydrochloride] returned a Ki at μ-receptor of under 1 nM. Also, the EC50 on human μ opioid receptor was under 10 nM.
On to `CCOC1(c2cccc(C(N)=O)c2)C2CCCC1CN(CC1CC1)C2` [Compound 30, 3-((1R,5S,9r)-3-(cyclopropylmethyl)-9-ethoxy-3-azabicyclo[3.3.1]nonan-9-yl)benzamide hydrochloride], for which, at μ-receptor, the Ki is under 1 nM. This compound displayed an EC50 on human μ opioid receptor of under 10 nM.
The corresponding values for `COC1(c2cccc(C(N)=O)c2)C2CCCC1CN(CCC(F)(F)F)C2` [Compound 34, 3-((1R,5S,9r)-9-methoxy-3-(3,3,3-trifluoropropyl)-3-azabicyclo[3.3.1]nonan-9-yl)benzamide hydrochloride] are under 1 nM and under 10 nM.
The corresponding values for `COC1(c2cccc(C(N)=O)c2)C2CCCC1CNC2` [Compound 35, 3-((1R,5S,9r)-9-methoxy-3-azabicyclo[3.3.1]nonan-9-yl)benzamide hydrochloride] are under 1 nM and 10 to 75 nM.
On to `COC1(c2ccc(C(N)=O)s2)C2CCCC1CN(CC1CC1)C2` [Compound 36, 5-((1R,5S,9r)-3-(cyclopropylmethyl)-9-methoxy-3-azabicyclo[3.3.1]nonan-9-yl)thiophene-2-carboxamide hydrochloride], for which the Ki on μ-receptor is under 1 nM. Also, the EC50 on human μ opioid receptor lay within 10 to 75 nM.
For `CN1CC2CCCC(C1)C2(OCC(F)(F)F)c1cccc(C(N)=O)c1` [Compound 37, 3-((1R,5S,9r)-3-methyl-9-(2,2,2-trifluoroethoxy)-3-azabicyclo[3.3.1]nonan-9-yl)benzamide hydrochloride] the same measures were 1 to 5 nM and 10 to 75 nM.
For `COC1(c2cccc(C(N)=O)c2)C2CCCC1CN(C1CC1)C2` [Compound 38, 3-((1R,5S,9r)-3-cyclopropyl-9-methoxy-3-azabicyclo[3.3.1]nonan-9-yl)benzamide hydrochloride] the same measures were under 1 nM and 10 to 75 nM.
The corresponding values for `COC1(c2cccc(C(N)=O)c2F)C2CCCC1CN(C)C2` [Compound 39, 2-fluoro-3-((1R,5S,9r)-9-methoxy-3-methyl-3-azabicyclo[3.3.1]nonan-9-yl)benzamide hydrochloride] are 1 to 5 nM and 10 to 75 nM.

Source of the values: US10604489B2, “Compounds for the treatment of pain” (priority 2018, dated 2020).
